Experimental data published in PMC12257542, “A Radiolabeled Photoswitchable G Protein-Coupled Receptor Antagonist Enlightens Ligand Binding Kinetics Associated with Photoswitching” (Journal of the American Chemical Society, 2025).
Where “and” joins values, the source holds several entries; their conditions need not be identical. Equal values may be shown once. Read-outs that look alike come from different tables or passages of the source. Each block holds one compound with its values, some of them ahead of it.

Columns and labels:
[1] = UV-vis spectra of trans and PSS cis states in HBSS buffer; type: physicochemical; settings: 25 μM in HBSS buffer containing 1% DMSO
Protocol: (§1) Experimental procedures – Photochemistry
UV−Vis spectra were recorded using a Thermo-scientific Evolution 201 PC spectrophotometer equipped with a thermostated cell holder set at 20 °C. Fits of UV−vis spectroscopy data were generated using Prism 10.1.0. Illumination for almost all photochemical experiments was executed using a Sutter instruments Lambda LS with a 300 W full-spectrum lamp connected to a Sutter instruments Lambda 10-3 optical filter changer equipped with 360 ± 10 nm, 434 ± 9 nm 494 ± 9 nm, or a Lambda 721 optical beam combiner system equipped with 365 ± 11 nm and 506 ± 14 nm filter. The light intensity used for the lambda 10-3 optical filter is 0.93 mW/mm2 using the 360 ± 20 nm filter, 0.79 mW/mm2 for the 434 ± 9 nm filter, 0.77 mW/mm2 for the 494 ± 9 nm filter as measured using a Thorlabs PM16−401 power meter. The light intensity used for the lambda 721 optical beam combiner is 200 mW using the 365 ± 11 nm filter and 60 mW for the 506 ± 12 nm filter. For photochemical analyses, illuminations were performed in Hellma Suprasil quartz 114QS cuvettes. For the dynamic illuminations, a 4-way cuvette holder (Avantes) was used. The left outlet of the holder is connected to an Avantes AvaLight-DH-S-BAL Deuterium lamp. The right outlet is connected through a fiber to an AvaSpec UV/Vis spectrometer. The lower outlet is connected to a Lambda 721 optical beam combiner system equipped with 365 ± 11 nm and 506 ± 14 nm filter illumination means. The upper outlet is covered with a black cap. The temperature of the solution in the cuvette (20 °C) is controlled by Q-blue Wireless Temperature Control software. […]
The typical distance […]
between light source and vial or cuvette was 2 cm.

[2] = Photostationary state area percentages by LC-MS at the isosbestic point; type: physicochemical; settings: for PSScis (area %cis): after illumination of trans isomer with 365 ± 10 nm at 1 mM in DMSO for 10 min
[3] = Thermal relaxation of PSS cis states (Arrhenius extrapolation); type: physicochemical; settings: approximate; HBSS buffer + 1% DMSO, extrapolated to 20 °C
Protocol: as §1
UV−Vis spectra were recorded using a Thermo-scientific Evolution 201 PC spectrophotometer equipped with a thermostated cell holder set at 20 °C. Fits of UV−vis spectroscopy data were generated using Prism 10.1.0. Illumination for almost all photochemical experiments was executed using a Sutter instruments Lambda LS with a 300 W full-spectrum lamp connected to a Sutter instruments Lambda 10-3 optical filter changer equipped with 360 ± 10 nm, 434 ± 9 nm 494 ± 9 nm, or a Lambda 721 optical beam combiner system equipped with 365 ± 11 nm and 506 ± 14 nm filter. The light intensity used for the lambda 10-3 optical filter is 0.93 mW/mm2 using the 360 ± 20 nm filter, 0.79 mW/mm2 for the 434 ± 9 nm filter, 0.77 mW/mm2 for the 494 ± 9 nm filter as measured using a Thorlabs PM16−401 power meter. The light intensity used for the lambda 721 optical beam combiner is 200 mW using the 365 ± 11 nm filter and 60 mW for the 506 ± 12 nm filter. For photochemical analyses, illuminations were performed in Hellma Suprasil quartz 114QS cuvettes. For the dynamic illuminations, a 4-way cuvette holder (Avantes) was used. The left outlet of the holder is connected to an Avantes AvaLight-DH-S-BAL Deuterium lamp. The right outlet is connected through a fiber to an AvaSpec UV/Vis spectrometer. The lower outlet is connected to a Lambda 721 optical beam combiner system equipped with 365 ± 11 nm and 506 ± 14 nm filter illumination means. The upper outlet is covered with a black cap. The temperature of the solution in the cuvette (20 °C) is controlled by Q-blue Wireless Temperature Control software.
Thermal relaxation experiments and Arrhenius extrapolations were performed according to Priimagi et al20, using a compound concentration of 25 μM in HBSS +1% DMSO and temperatures of 50, 60, and 70 °C. Illuminations for pharmacological experiments were performed in cylindrical clear glass vials with a volume of 4.5 mL. The typical distance between light source and vial or cuvette was 2 cm.

H3R [4] = molecular target: T1, H3R (Homo sapiens, UniProt Q9Y5N1); experiment: [3H]NAMH competition radioligand binding on cell homogenates overexpressing H3R; settings: for Fold Ki shift: (high-affinity state)/(low-affinity state); for Ki: [3H]NAMH competition, n = 3
T1 sequence (Q9Y5N1 whole entry): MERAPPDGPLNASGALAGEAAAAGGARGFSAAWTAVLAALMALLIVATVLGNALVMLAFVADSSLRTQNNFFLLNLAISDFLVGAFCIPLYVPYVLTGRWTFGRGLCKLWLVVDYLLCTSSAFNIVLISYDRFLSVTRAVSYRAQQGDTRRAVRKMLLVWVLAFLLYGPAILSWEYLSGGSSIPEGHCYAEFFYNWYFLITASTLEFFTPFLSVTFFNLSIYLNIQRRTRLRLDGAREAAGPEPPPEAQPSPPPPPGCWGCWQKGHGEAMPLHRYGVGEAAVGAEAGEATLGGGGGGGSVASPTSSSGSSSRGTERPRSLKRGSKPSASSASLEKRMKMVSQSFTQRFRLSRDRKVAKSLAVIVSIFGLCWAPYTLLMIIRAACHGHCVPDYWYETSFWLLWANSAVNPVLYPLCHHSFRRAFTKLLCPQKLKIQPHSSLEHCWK

H3R [5] = molecular target: T1, H3R; experiment: Functional H3R NanoBiT-PKA (cAMP sensor) assay in transiently transfected HEK293T cells; type: cell-based; settings: inhibition of forskolin-stimulated cAMP signal, agonist alone
hH3R = hH3R (Homo sapiens, UniProt Q9Y5N1); experiment: Competition binding of non-labeled ligands with trans-[3H]3f on hH3R-expressing cell homogenates
Sequence of hH3R (Q9Y5N1 whole entry): as above

H3R [6] = molecular target: T1, H3R; experiment: Association and dissociation radioligand binding experiments with [3H]3f; settings: for dissociation t 1/2: t1/2 = ln 2/k off; for Kd: from k off/k on, read-out: pK d(k in) calculated kinetic affinity (converted)
Protocol: (§2) To determine non-specific
(§3) specific binding from the total binding.
(§4) intervals ranging from 0-20 minutes.
(§5) was measured as described above.
(§6) model to obtain Kd values.

H3R [7] = molecular target: T1, H3R; type: binding
Protocol: as §2, §3, §4, §5, §6

H3R [8] = molecular target: T1, H3R; settings: ref Hauwert et al., cited from earlier work
[9] = parameters: method as in Hauwert et al.; settings: 25 μM in HBSS buffer containing 1% DMSO; ref Hauwert et al.; cited from earlier work
[10] = parameters: method as in Hauwert et al.; settings: ref Hauwert et al., cited from earlier work
[11] = parameters: method as in Hauwert et al.; settings: approximate, extrapolated to 20 °C; ref Hauwert et al.; cited from earlier work
[12] = ↑ higher affinity of PSS cis state than trans
[13] = illumination of PSS cis state with 506 ± 20 nm at 1 mM in DMSO for 10 min
[14] = ↓ lower affinity of PSS cis state than trans

λmax cis [1]: 440 nm
λmax trans [1]: 349 nm
PSScis (area %cis) [2]: 94 area %
PSStrans (area %trans) [2, 13]: 95 area %
Half-life (thermal relaxation of PSS cis state) [3]: 600 h
Fold Ki shift (H3R [4]; [14]): 20.0 ↓ fold
SMILES: Cc1nn(C2CCOCC2)c(C)c1/N=N/c1ccc(O[C@H]2C[C@H](N3CCCCC3)C2)cc1 [Compound 3c]

λmax cis [1]: 434 nm
λmax trans [1]: 346 nm
PSScis (area %cis) [2]: 99 area %
PSStrans (area %trans) [2, 13]: 92 area %
Half-life (thermal relaxation of PSS cis state) [3]: 696 h
Fold Ki shift (H3R [4]; [14]): 25.1 ↓ fold
Ki (H3R [4]; pKi trans ± SEM, trans isomer): 0.501 nM
SMILES: Cc1nn(C2CCNCC2)c(C)c1/N=N/c1ccc(O[C@H]2C[C@H](N3CCCCC3)C2)cc1 [Compound 3e]

λmax cis [1]: 440 nm
λmax trans [1]: 351 nm
PSScis (area %cis) [2]: 88 area %
PSStrans (area %trans) [2, 13]: 94 area %
Half-life (thermal relaxation of PSS cis state) [3]: 170 h
Fold Ki shift (H3R [4]; [14]): 12.6 ↓ fold
SMILES: Cc1nn(C2CCCCC2)c(C)c1/N=N/c1ccc(O[C@H]2C[C@H](N3CCCCC3)C2)cc1 [Compound 3b]

λmax cis [1]: 439 nm
λmax trans [1]: 347 nm
PSScis (area %cis) [2]: 95 area %
PSStrans (area %trans) [2, 13]: 93 area %
Half-life (thermal relaxation of PSS cis state) [3]: 432 h
Fold Ki shift (H3R [4]; [14]): 7.9 ↓ fold
fold improved Ki value of trans isomer compared to trans-2 (H3R [4]; trans isomers): more than 10 fold
SMILES: Cc1nn(C)c(C)c1/N=N/c1ccc(O[C@H]2C[C@H](N3CCCCC3)C2)cc1 [Compound 3a]

More lines, now with the values behind:

SMILES: c1ccc(/N=N/c2ccc(O[C@H]3C[C@H](N4CCCCC4)C3)cc2)cc1 [Compound 2]
λmax cis [1]: 425 nm
λmax trans [1]: 350 nm
PSScis (area %cis) [2]: 97 area %
PSStrans (area %trans) ([2]; illumination of PSS cis state with 434 ± 20 nm at 1 mM in DMSO for 10 min): 74 area %
Half-life (thermal relaxation of PSS cis state) [3]: 48 h
Fold Ki shift (H3R [4]; [12]): 4 fold and 4.0 ↑ fold
Ki (H3R [4]; pKi PSScis ± SEM, PSS cis state): 2.51 nM

SMILES: c1cc(Cc2cnc[nH]2)ccn1 [immethridine, reference compound]
EC50 (H3R [5]): 0.794 nM

SMILES: c1nc(CC2CCNCC2)c[nH]1 [immepip, reference compound]
Ki (hH3R): 3.16 nM

SMILES: [3H]C([3H])([3H])N1CCC(n2nc(C)c(/N=N/c3ccc(O[C@H]4C[C@H](N5CCCCC5)C4)cc3)c2C)CC1 [[^3H]3f]
time at which binding to H3R reaches equilibrium (H3R [6]; 0.5 nM trans state): 15 min
kon (H3R [6]; PSS cis state (preilluminated trans-[3H]3f)): 217000 M⁻¹ s⁻¹
dissociation t 1/2 (H3R [6]; PSS cis state, clobenpropit): 6.2 ± 0.2 min
dissociation t 1/2 (H3R [6]; PSS cis state, clobenpropit, listed as [^3H]3f-PSS cis): 6.2 ± 0.4 min
koff (H3R [6]; PSS cis state, dissociation initiated with clobenpropit): 0.00183 s⁻¹
Kd (H3R [6]; PSS cis state): 12.6 nM
fold lower k on value compared to trans-[3H]3f (H3R [6]; PSS cis versus trans): 10 fold
kon (H3R [6]; trans state, 0.5 nM): 2.15e+06 M⁻¹ s⁻¹
dissociation t 1/2 (H3R [6]; trans state, clobenpropit (10 μM)): 4.9 ± 0.4 min
koff (H3R [6]; trans state, dissociation initiated with 10 μM clobenpropit): 0.0025 s⁻¹
Kd (H3R [6]; trans state): 1.26 nM
H3R binding remaining after exposure to 365 nm light (H3R [7]; prebound trans state 0.5 nM, no competitor present): approximately 0%
dissociation t 1/2 (H3R [7]; prebound trans state, 365 nm light, t1/2 = ln 2/k off): 48 ± 12 s
fold faster dissociation kinetics upon 365 nm illumination (H3R [7]; prebound trans, 365 nm light versus dissociation of dark trans-[3H]3f): 6.2 fold

SMILES: c1ccc(/N=N/c2ccc(OCCCN3CCCCC3)cc2)cc1 [Compound 1]
pKi PSScis ± SEM (H3R [8]; PSS cis state, [3H]NAMH competition): 8.1 ± 0.1
pKi trans ± SEM (H3R [8]; trans isomer, [3H]NAMH competition): 7.3 ± 0.1
Fold Ki shift (H3R [8]; [12]): 6.3 ↑ fold
λmax cis [9]: 432 nm
λmax trans [9]: 344 nm
PSScis (area %cis) ([10]; after illumination of trans isomer with 365 ± 10 nm): 97 area %
PSStrans (area %trans) ([10]; illumination of PSS cis state with 434 ± 20 nm): 68 area %
Half-life (thermal relaxation of PSS cis state) [11]: 264 h
